From ChEMBL document CHEMBL3885881, “DrugMatrix”

Organism: Rattus norvegicus
Test: DrugMatrix - Regimen: Daily Repeat
Assay type: toxicity, organism-based, Sprague-Dawley
Design: regimen Daily Repeat, gender Male, age 6-8 weeks
Conditions: in vivo, po, route oral GAVAGE, vehicle 100 % WATER; for ABSOLUTE BASOPHIL / ABSOLUTE EOSINOPHIL / ABSOLUTE LYMPHOCYTE / ABSOLUTE MONOCYTE / ABSOLUTE SEGMENTED NEUTROPHIL / BASOPHIL / EOSINOPHIL / ERYTHROCYTE COUNT / HEMATOCRIT / HEMOGLOBIN / LEUKOCYTE COUNT / LYMPHOCYTE / MEAN CORPUSCULAR HEMOGLOBIN / MEAN CORPUSCULAR HEMOGLOBIN CONCENTRATION / MEAN CORPUSCULAR VOLUME / MONOCYTE / NEUTROPHIL / NUCLEATED RED BLOOD CELLS / PLATELET COUNT: tissue Blood; for ALANINE AMINOTRANSFERASE / ALBUMIN / ALKALINE PHOSPHATASE / ASPARTATE AMINOTRANSFERASE / BLOOD UREA NITROGEN / CARBON DIOXIDE / CHLORIDE / CHOLESTEROL / CREATINE PHOSPHOKINASE / CREATININE / GLUCOSE / LACTATE DEHYDROGENASE / LIPASE / PHOSPHORUS / POTASSIUM / SODIUM / TOTAL BILIRUBIN / TOTAL PROTEIN / URIC ACID: tissue Plasma
[1] = 0.07 mg/kg, 120 h, dose level Low, time 5 day
[2] = 0.5 mg/kg, 72 h, dose level High, time 3 day
[3] = 0.5 mg/kg, 120 h, dose level High, time 5 day

Structure (SMILES): Cc1cc(C(C)(C)C)c(O)c(C)c1CC1=NCCN1 [OXYMETAZOLINE]
- ABSOLUTE BASOPHIL [1]: 0 CELLS/uL
- ABSOLUTE EOSINOPHIL [1]: 196 CELLS/uL
- ABSOLUTE LYMPHOCYTE [1]: 15823.67 CELLS/uL
- ABSOLUTE MONOCYTE [1]: 436.67 CELLS/uL
- ABSOLUTE SEGMENTED NEUTROPHIL [1]: 2110.33 CELLS/uL
- BASOPHIL [1]: 0%
- EOSINOPHIL [1]: 1%
- ERYTHROCYTE COUNT [1]: 5.33 x10E6/uL
- HEMATOCRIT [1]: 33.03%
- HEMOGLOBIN [1]: 13.6 G/DL
- LEUKOCYTE COUNT [1]: 18.57 x10E3/uL
- LYMPHOCYTE [1]: 85.33%
- MEAN CORPUSCULAR HEMOGLOBIN [1]: 25.53 pg
- MEAN CORPUSCULAR HEMOGLOBIN CONCENTRATION [1]: 41.13 G/DL
- MEAN CORPUSCULAR VOLUME [1]: 61.93 fL
- MONOCYTE [1]: 2.33%
- NEUTROPHIL [1]: 11.33%
- NUCLEATED RED BLOOD CELLS [1]: 0 /100WBC
- PLATELET COUNT [1]: 1316.33 x10E3/uL
- ALANINE AMINOTRANSFERASE [1]: 45.33 u/L
- ALBUMIN [1]: 4.4 G/DL
- ALKALINE PHOSPHATASE [1]: 411.67 u/L
- ASPARTATE AMINOTRANSFERASE [1]: 82 u/L
- BLOOD UREA NITROGEN [1]: 13 mg/dL
- CARBON DIOXIDE [1]: 29 mmol/L
- CHLORIDE [1]: 101.67 MEQ/L
- CHOLESTEROL [1]: 75.33 mg/dL
- CREATINE PHOSPHOKINASE [1]: 214.67 u/L
- CREATININE [1]: 0.21 mg/dL
- GLUCOSE [1]: 167 mg/dL
- LACTATE DEHYDROGENASE [1]: 203.67 u/L
- LIPASE [1]: 10.67 u/L
- PHOSPHORUS [1]: 11.53 mg/dL
- POTASSIUM [1]: 6.21 MEQ/L
- SODIUM [1]: 142.97 MEQ/L
- TOTAL BILIRUBIN [1]: 0.13 mg/dL
- TOTAL PROTEIN [1]: 5.97 G/DL
- URIC ACID [1]: 1.73 mg/dL
- ABSOLUTE BASOPHIL [2]: 0 CELLS/uL
- ABSOLUTE EOSINOPHIL [2]: 0 CELLS/uL
- ABSOLUTE LYMPHOCYTE [2]: 15583 CELLS/uL
- ABSOLUTE MONOCYTE [2]: 59.33 CELLS/uL
- ABSOLUTE SEGMENTED NEUTROPHIL [2]: 1491 CELLS/uL
- BASOPHIL [2]: 0%
- EOSINOPHIL [2]: 0%
- ERYTHROCYTE COUNT [2]: 5.61 x10E6/uL
- HEMATOCRIT [2]: 35.17%
- HEMOGLOBIN [2]: 13.97 G/DL
- LEUKOCYTE COUNT [2]: 17.13 x10E3/uL
- LYMPHOCYTE [2]: 91%
- MEAN CORPUSCULAR HEMOGLOBIN [2]: 24.9 pg
- MEAN CORPUSCULAR HEMOGLOBIN CONCENTRATION [2]: 39.73 G/DL
- MEAN CORPUSCULAR VOLUME [2]: 62.7 fL
- MONOCYTE [2]: 0.33%
- NEUTROPHIL [2]: 8.67%
- NUCLEATED RED BLOOD CELLS [2]: 0 /100WBC
- PLATELET COUNT [2]: 1369.67 x10E3/uL
- ALANINE AMINOTRANSFERASE [2]: 42.67 u/L
- ALBUMIN [2]: 3.6 G/DL
- ALKALINE PHOSPHATASE [2]: 345.33 u/L
- ASPARTATE AMINOTRANSFERASE [2]: 79.67 u/L
- BLOOD UREA NITROGEN [2]: 16 mg/dL
- CARBON DIOXIDE [2]: 25.67 mmol/L
- CHLORIDE [2]: 105 MEQ/L
- CHOLESTEROL [2]: 70.67 mg/dL
- CREATINE PHOSPHOKINASE [2]: 215.33 u/L
- CREATININE [2]: 0.14 mg/dL
- GLUCOSE [2]: 166.67 mg/dL
- LACTATE DEHYDROGENASE [2]: 174 u/L
- LIPASE [2]: 9 u/L
- PHOSPHORUS [2]: 10.3 mg/dL
- POTASSIUM [2]: 5.92 MEQ/L
- SODIUM [2]: 144.53 MEQ/L
- TOTAL BILIRUBIN [2]: 0.2 mg/dL
- TOTAL PROTEIN [2]: 5.43 G/DL
- URIC ACID [2]: 1.73 mg/dL
- ABSOLUTE BASOPHIL [3]: 0 CELLS/uL
- ABSOLUTE EOSINOPHIL [3]: 250.33 CELLS/uL
- ABSOLUTE LYMPHOCYTE [3]: 17058 CELLS/uL
- ABSOLUTE MONOCYTE [3]: 0 CELLS/uL
- ABSOLUTE SEGMENTED NEUTROPHIL [3]: 1425 CELLS/uL
- BASOPHIL [3]: 0%
- EOSINOPHIL [3]: 1.33%
- ERYTHROCYTE COUNT [3]: 5.31 x10E6/uL
- HEMATOCRIT [3]: 33.13%
- HEMOGLOBIN [3]: 13.6 G/DL
- LEUKOCYTE COUNT [3]: 18.73 x10E3/uL
- LYMPHOCYTE [3]: 90.33%
- MEAN CORPUSCULAR HEMOGLOBIN [3]: 25.67 pg
- MEAN CORPUSCULAR HEMOGLOBIN CONCENTRATION [3]: 41.03 G/DL
- MEAN CORPUSCULAR VOLUME [3]: 62.53 fL
- MONOCYTE [3]: 0%
- NEUTROPHIL [3]: 8.33%
- NUCLEATED RED BLOOD CELLS [3]: 0 /100WBC
- PLATELET COUNT [3]: 1420 x10E3/uL
- ALANINE AMINOTRANSFERASE [3]: 47.33 u/L
- ALBUMIN [3]: 3.93 G/DL
- ALKALINE PHOSPHATASE [3]: 346 u/L
- ASPARTATE AMINOTRANSFERASE [3]: 73 u/L
- BLOOD UREA NITROGEN [3]: 14.33 mg/dL
- CARBON DIOXIDE [3]: 30 mmol/L
- CHLORIDE [3]: 104 MEQ/L
- CHOLESTEROL [3]: 72.33 mg/dL
- CREATINE PHOSPHOKINASE [3]: 164.33 u/L
- CREATININE [3]: 0.11 mg/dL
- GLUCOSE [3]: 141 mg/dL
- LACTATE DEHYDROGENASE [3]: 161 u/L
- LIPASE [3]: 10 u/L
- PHOSPHORUS [3]: 10.57 mg/dL
- POTASSIUM [3]: 6.08 MEQ/L
- SODIUM [3]: 142.83 MEQ/L
- TOTAL BILIRUBIN [3]: 0.1 mg/dL
- TOTAL PROTEIN [3]: 5.37 G/DL
- URIC ACID [3]: 1.4 mg/dL
